Measured values from patent publication US7138361B2, “Herbicidal heterocycles” (E. I. du Pont de Nemours and Company, priority 2000, dated 2006).

Columns and labels:
Type in all cases: in vivo
[1] = system: cocklebur (Xanthium strumarium); assay: Test B preemergence; conditions: Preemergence, Rate 500 g/ha; scale 0 to 100, 0 no effect, 100 complete control
Procedure, shortened: (§1)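 Greenhouse test: chemicals are formulated in a surfactant-containing non-phytotoxic solvent and applied either preemergence to planted seeds or postemergence to plants 2 to 18 cm tall. Response is rated visually versus controls after 13 to 15 days, 0 meaning no effect and 100 complete control.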

corn (Zea mays) [2] = assay: Test B preemergence; conditions: scale 0 to 100, 0 no effect, 100 complete control
Procedure, shortened: as §1

rice (Oryza saliva) [3] = assay: Test B preemergence; conditions: scale 0 to 100, 0 no effect, 100 complete control
Procedure, shortened: as §1

[4] = system: lambsquarters (Chenopodium album); assay: Test B preemergence; conditions: Preemergence, Rate 500 g/ha; scale 0 to 100, 0 no effect, 100 complete control
Procedure, shortened: as §1

[5] = system: barnyardgrass (Echinochloa crus-galli); assay: Test B preemergence; conditions: scale 0 to 100, 0 no effect, 100 complete control
Procedure, shortened: as §1

[6] = system: velvetleaf (Abutilon theophrasti); assay: Test B preemergence; conditions: Preemergence, Rate 500 g/ha; scale 0 to 100, 0 no effect, 100 complete control
Procedure, shortened: as §1

[7] = system: pigweed (Amaranthus retroflexus); assay: Test B preemergence; conditions: scale 0 to 100, 0 no effect, 100 complete control
Procedure, shortened: as §1

[8] = system: giant foxtail (Setaria faberii); assay: Test B preemergence; conditions: scale 0 to 100, 0 no effect, 100 complete control
Procedure, shortened: as §1

[9] = system: Surinam grass (Brachiaria decumbens); assay: Test B preemergence; conditions: scale 0 to 100, 0 no effect, 100 complete control
Procedure, shortened: as §1

[10] = system: morning glory (Ipomoea hederacea); assay: Test B preemergence; conditions: Preemergence, Rate 500 g/ha; scale 0 to 100, 0 no effect, 100 complete control
Procedure, shortened: as §1

[11] = system: crabgrass (Digitaria sanguinalis); assay: Test B preemergence; conditions: scale 0 to 100, 0 no effect, 100 complete control
Procedure, shortened: as §1

[12] = system: cocklebur (Xanthium strumarium); assay: Test B postemergence; conditions: 13 to 15 days
Procedure, shortened: as §1

corn (Zea mays) [13] = assay: Test B postemergence; conditions: 13 to 15 days
Procedure, shortened: as §1

[14] = system: blackgrass (Alopecurus myosuroides); assay: Test B postemergence; conditions: 13 to 15 days
Procedure, shortened: as §1

[15] = system: lambsquarters (Chenopodium album); assay: Test B postemergence; conditions: 13 to 15 days
Procedure, shortened: as §1

[16] = system: barnyardgrass (Echinochloa crus-galli); assay: Test B postemergence; conditions: 13 to 15 days
Procedure, shortened: as §1

[17] = system: velvetleaf (Abutilon theophrasti); assay: Test B postemergence; conditions: 13 to 15 days
Procedure, shortened: as §1

[18] = system: pigweed (Amaranthus retroflexus); assay: Test B postemergence; conditions: 13 to 15 days
Procedure, shortened: as §1

[19] = system: giant foxtail (Setaria faberii); assay: Test B postemergence; conditions: 13 to 15 days
Procedure, shortened: as §1

[20] = system: Surinam grass (Brachiaria decumbens); assay: Test B postemergence; conditions: 13 to 15 days
Procedure, shortened: as §1

[21] = system: morning glory (Ipomoea hederacea); assay: Test B postemergence; conditions: 13 to 15 days
Procedure, shortened: as §1

wild oat (Avena fatua) = assay: Test B postemergence; conditions: 13 to 15 days
Procedure, shortened: as §1

[22] = system: crabgrass (Digitaria sanguinalis); assay: Test B postemergence; conditions: 13 to 15 days
Procedure, shortened: as §1

[23] = system: wheat (Triticum aestivum); assay: Test B postemergence; conditions: 13 to 15 days
Procedure, shortened: as §1

rice (Oryza saliva) [24] = assay: Test B flooded paddy test; conditions: Rate 1000 g/ha, scale of 0 to 100 where 0 is no effect and 100 is complete control, visually evaluated after 13 to 15 days
Procedure, shortened: (§2)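 Visual injury score on a 0–100 scale, where 100 means complete control, assigned against untreated controls 13 to 15 days after plants at the 2-leaf stage were treated under flooded paddy conditions.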

[25] = system: duck salad (Heteranthera limosa); assay: Test B flooded paddy test; conditions: Rate 1000 g/ha, scale of 0 to 100 where 0 is no effect and 100 is complete control, visually evaluated after 13 to 15 days
Procedure, shortened: as §2

[26] = system: barnyardgrass (Echinochloa crus-galli); assay: Test B flooded paddy test; conditions: Rate 1000 g/ha, scale of 0 to 100 where 0 is no effect and 100 is complete control, visually evaluated after 13 to 15 days
Procedure, shortened: as §2

[27] = system: smallflower flatsedge (Cyperus difformis); assay: Test B flooded paddy test; conditions: Rate 1000 g/ha, scale of 0 to 100 where 0 is no effect and 100 is complete control, visually evaluated after 13 to 15 days
Procedure, shortened: as §2

rice (Oryza saliva) [28] = assay: Test C flooded paddy test
Procedure, shortened: (§3)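 2-leaf-stage plants, flooded paddy; treated; greenhouse 12–14 days; compared with controls by eye; rated 0–100 (0 none, 100 complete control).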

[29] = system: duck salad (Heteranthera limosa); assay: Test C flooded paddy test
Procedure, shortened: as §3

[30] = system: barnyardgrass (Echinochloa crus-galli); assay: Test C flooded paddy test
Procedure, shortened: as §3

[31] = system: smallflower flatsedge (Cyperus difformis); assay: Test C flooded paddy test; conditions: for Flatsedge plant response rating: Flooded Paddy, scale 0 to 100, 0 no effect, 100 complete control; for Plant response rating, Flatsedge: flooded paddy test, scale 0 to 100 (0 no effect, 100 complete control)
Procedure, shortened: as §3

[32] = Rate 125 g/ha, scale 0 (no effect) to 100 (complete control)
[33] = Rate 500 g/ha, scale 0 to 100, 0 is no effect, 100 is complete control
[34] = Flooded Paddy, Rate 500 g/ha, scale 0 to 100
[35] = Flooded Paddy, Rate 250 g/ha, scale 0 to 100, 0 no effect, 100 complete control
[36] = flooded paddy test, Rate 62 g/ha, scale 0 to 100 (0 no effect, 100 complete control)
[37] = flooded paddy test, Rate 125 g/ha, scale 0 to 100 (0 no effect, 100 complete control)

## Cc1cn(C2CCN(c3cccc(C(F)(F)F)c3)C2=O)nc1C(C)C (stereo not shown) [Compound 17]
[1]
  Plant response rating, Cocklebur: 0
Corn (Zea mays) [2]; Preemergence, Rate 500 g/ha
  Plant response rating, Corn: 0
Corn (Zea mays) [2]; preemergence, Rate 125 g/ha
  Plant response rating, Corn: 0
Rice (Oryza saliva) [3]; Preemergence, Rate 500 g/ha
  Plant response rating, Rice: 0
Rice (Oryza saliva) [3]; preemergence, Rate 125 g/ha
  Plant response rating, Rice: 0
[4]
  Plant response rating, Lambsquarters: 0
[5]; Preemergence, Rate 500 g/ha
  Plant response rating, Barnyardgrass: 0
[5]; preemergence, Rate 125 g/ha
  Plant response rating, Barnyardgrass: 0
[6]
  Plant response rating, Velvetleaf: 0
[7]; Preemergence, Rate 500 g/ha
  Plant response rating, Pigweed: 0
[7]; preemergence, Rate 125 g/ha
  Plant response rating, Pigweed: 0
[8]; Preemergence, Rate 500 g/ha
  Plant response rating, Foxtail, Giant: 0
[8]; preemergence, Rate 125 g/ha
  Plant response rating, Foxtail, Giant: 0
[9]; Preemergence, Rate 500 g/ha
  Plant response rating, Surinam grass: 0
[9]; preemergence, Rate 125 g/ha
  Plant response rating, Surinam grass: 0
[10]
  Plant response rating, Morningglory: 0
[11]; Preemergence, Rate 500 g/ha
  Plant response rating, Crabgrass: 0
[11]; preemergence, Rate 125 g/ha
  Plant response rating, Crabgrass: 0
[12]; [32]
  Plant response rating, Cocklebur: 0
[12]; [33]
  Plant response rating, Cocklebur: 0
Corn (Zea mays) [13]; [32]
  Plant response rating, Corn: 0
Corn (Zea mays) [13]; [33]
  Plant response rating, Corn: 0
[14]; [32]
  Plant response rating, Blackgrass: 0
[14]; [33]
  Plant response rating, Blackgrass: 0
[15]; [32]
  Plant response rating, Lambsquarters: 80
[15]; [33]
  Plant response rating, Lambsquarters: 80
[16]; [32]
  Plant response rating, Barnyardgrass: 0
[16]; [33]
  Plant response rating, Barnyardgrass: 0
[17]; [32]
  Plant response rating, Velvetleaf: 0
[17]; [33]
  Plant response rating, Velvetleaf: 0
[18]; [32]
  Plant response rating, Pigweed: 0
[18]; [33]
  Plant response rating, Pigweed: 0
[19]; [32]
  Plant response rating, Foxtail, Giant: 0
[19]; [33]
  Plant response rating, Foxtail, Giant: 0
[20]; [32]
  Plant response rating, Surinam grass: 0
[20]; [33]
  Plant response rating, Surinam grass: 0
[21]; [32]
  Plant response rating, Morningglory: 0
[21]; [33]
  Plant response rating, Morningglory: 0
Wild oat (Avena fatua); [32]
  Plant response rating, Wild Oat: 0
Wild oat (Avena fatua); [33]
  Plant response rating, Wild Oat: 0
[22]; [32]
  Plant response rating, Crabgrass: 0
[22]; [33]
  Plant response rating, Crabgrass: 0
[23]; [32]
  Plant response rating, Wheat: 0
[23]; [33]
  Plant response rating, Wheat: 0
Rice (Oryza saliva) [24]
  Plant response rating, Rice: 40
[25]
  Plant response rating, Ducksalad: 60
[26]
  Plant response rating, Barnyardgrass: 80
[27]
  Plant response rating, Flatsedge: 90
Rice (Oryza saliva) [28]; [34]
  Plant response rating, Rice: 0
Rice (Oryza saliva) [28]; [35]
  Rice plant response rating: 0
Rice (Oryza saliva) [28]; [36]
  Plant response rating, Rice: 0
Rice (Oryza saliva) [28]; [37]
  Plant response rating, Rice: 0
[29]; [34]
  Plant response rating, Ducksalad: 80
[29]; [35]
  Ducksalad plant response rating: 80
[29]; [36]
  Plant response rating, Ducksalad: 30
[29]; [37]
  Plant response rating, Ducksalad: 70
[30]; [34]
  Plant response rating, Barnyardgrass: 70
[30]; [35]
  Barnyardgrass plant response rating: 0
[30]; [36]
  Plant response rating, Barnyardgrass: 0
[30]; [37]
  Plant response rating, Barnyardgrass: 0
[31]; Rate 250 g/ha
  Flatsedge plant response rating: 80
[31]; Rate 500 g/ha
  Flatsedge plant response rating: 80
[31]; Rate 62 g/ha
  Plant response rating, Flatsedge: 20
[31]; Rate 125 g/ha
  Plant response rating, Flatsedge: 70
